Results from patent US12162935B2, “Regimens, compositions and methods with capsaicin and TNF-alpha inhibitor” (priority 2018, dated 2024).
One block for each compound: values may come before it.

Tests used:
ERK1/2 = ERK1/2 activation by western blotting; assay type: cell-based, mouse; conditions: 100 μM H2O2 or TNF-α 0.1 μg/ml
UMSCC-10b cells = assay: SCID mouse xenograft model; assay type: in vivo; conditions: single agent: cisplatin 2 mg/kg ip or oral capsaicin 0.5 mg/kg
Description: SCID mice (from Envigo, 5-6 weeks of age) were injected subcutaneously with 1.5×10^6 mycoplasma-free UMSCC 10B cells in one flank. […] At the time of each treatment, tumor volumes were calculated based on the formula: volume=width2×(length/2) [Jajoo et al.]. Mice were killed 24 h after the eleventh treatment. All procedures were performed in accordance with relevant guidelines and regulations of SIU School of Medicine.

rat cochlea [1] = assay: Cochlear gene expression by q-PCR (cisplatin study); assay type: in vivo; conditions: 72 h following cisplatin
outer hair cells (OHCs) = assay: Outer hair cell damage by SEM and whole mount hair cell count; assay type: in vivo, rat; conditions: basal turn, cisplatin
Source text: Immediately after completion of post-treatment ABRs, rats were euthanized and their cochleae were harvested and the specimens processed as described previously by [Kamimura et al.]. Sputter-coated cochlea were viewed and photographed with a Hitachi S-500 scanning electron microscope (Hitachi Ltd.). The resulting scanning electron micrographs were examined to determine qualitative morphological characteristics in various regions including the basal, middle, and apical turns of the rat cochlea.
Two representative areas of the basal turn, middle turn, and apex and hook portion were photographed. In each area, outer hair cells (OHCs) were counted in an area that was 10 pillar cell heads in length. The results are presented as the percentage hair cell damage per cochlear turn. At least three cochleae from different animals per treatment group were used.
To study the organization of the outer hair cells and inner hair cells, the cochlear whole mount technique was used. The cochleae was fixed in fresh 4% paraformaldehyde overnight, and then decalcified in […] EDTA for 2 weeks, (pH 7.3) while stirring at room temperature for 2 weeks. After decalcification, the cochleae was microdissected into basal, middle, and apical turns for whole-mount preparation.
For further processing, segments were washed with 1×PBS twice for 5 mins. For blocking, the segments were incubated in 10% blocking serum (horse serum) for 3 hrs at room temperature. The segments were incubated with primary antibody in 0.2% Triton prepared in PBS and refrigerated overnight. The following day, the segments were washed in PBS (three washes) for 5 mins each wash. The segments were washed in secondary antibody for 2 hrs at room temperature in the dark. The antibodies were then washed with PBS (three washes). Glass coverslips were then mounted on the segments with ProLong Diamond Antifade Mountant (Thermo Fisher Scientific) and incubated them at room temperature overnight and then stored them in 4 degrees. Images were procured using a Leica confocal microscope (Buffalo Grove, IL).
For hair cell count in whole mount preparations, two to three random areas from the basal turn from each treatment group separately were selected. Hair cells were counted in […] segments of the cochlea respectively. Counts were averaged across treatment group. This was further normalized as % of PBS (control) by taking the values of control as 100%.

UB/OC-1 cells [2] = assay: Western blot of STAT1, STAT3 and JAK2 phosphorylation; assay type: cell-based, mouse
rat cochlea [3] = assay: Immunolabelling of mid-modiolar cochlear sections, fluorescent intensity analyses; assay type: in vivo
Description: Cochleae were perfused with a 4% paraformaldehyde solution, cochleae were decalcified for 7-10 days in 120 mM EDTA, embedded them in paraffin and then sectioned the specimens [Mukherjea et al., 2010]. Slides were deparaffined, rehydrated and then stained with primary and secondary antibodies. Glass coverslips were mounted on the specimens with ProLong Diamond mounting medium. Images were obtained using a Leica confocal microscope (Buffalo Grove, IL).
Image J software was used to analyze the mean gray area for the various images. These values were then used to quantify the increase or decrease in % fluorescence intensity of the various regions of the samples compared to control.

UB/OC-1 cells [4] = assay: Ca2+ imaging (Fluo-4AM) in UB/OC-1 cells; assay type: cell-based, mouse
Source text: (§1) NE has been linked to immediate increase in ROS generation and persistent oxidative stress in the cochlea2, leading to generation of reactive oxygen species such as: hydroxyl […] (OH^−), superoxide anion (O^2—) and hydrogen peroxide (H2O2).

TRPV1 = TRPV1 (Homo sapiens, UniProt Q8NER1); assay: Ca2+ imaging (Fluo-4AM) in HEKVR1 cells; assay type: cell-based
TRPV1, sequence (Q8NER1 whole entry, species assumed): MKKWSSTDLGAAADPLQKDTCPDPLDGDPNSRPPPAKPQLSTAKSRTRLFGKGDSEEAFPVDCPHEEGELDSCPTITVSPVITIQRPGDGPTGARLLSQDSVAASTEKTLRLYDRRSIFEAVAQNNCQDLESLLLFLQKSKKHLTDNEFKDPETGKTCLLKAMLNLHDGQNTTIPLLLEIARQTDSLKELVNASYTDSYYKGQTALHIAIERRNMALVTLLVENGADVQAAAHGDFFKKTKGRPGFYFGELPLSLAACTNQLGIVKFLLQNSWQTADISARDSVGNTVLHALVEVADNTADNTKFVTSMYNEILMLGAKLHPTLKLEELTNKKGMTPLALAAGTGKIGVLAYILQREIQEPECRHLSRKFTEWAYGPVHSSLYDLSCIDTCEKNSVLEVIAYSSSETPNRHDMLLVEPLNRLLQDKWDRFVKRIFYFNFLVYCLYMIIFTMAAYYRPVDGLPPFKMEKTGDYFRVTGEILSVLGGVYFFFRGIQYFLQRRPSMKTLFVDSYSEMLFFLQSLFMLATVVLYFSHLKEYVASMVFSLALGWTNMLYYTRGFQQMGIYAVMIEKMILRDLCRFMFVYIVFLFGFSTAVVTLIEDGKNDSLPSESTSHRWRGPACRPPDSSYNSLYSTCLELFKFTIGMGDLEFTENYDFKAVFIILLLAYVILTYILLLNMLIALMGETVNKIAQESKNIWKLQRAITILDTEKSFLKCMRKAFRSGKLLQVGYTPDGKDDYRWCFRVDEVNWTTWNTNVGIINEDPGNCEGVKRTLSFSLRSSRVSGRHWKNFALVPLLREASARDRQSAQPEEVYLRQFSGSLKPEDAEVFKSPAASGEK
Source text: as §1

UB/OC1 cells = assay: Cell death by TUNEL
Description: UB/OC1 cells were treated with either scrambled siRNA or TRPV1 siRNA for 24 h.

[5] = capsaicin 2.5 μM 30 min and/or cisplatin 2.5 μM 45 min (FIG. 5.E)
[6] = TNF-α 0.1 μg/ml 60 seconds prior to 100 μM H2O2, till 5 minutes

Compound: OO [H2O2, hydrogen peroxide]
- time of highest ERK activation post treatment (ERK1/2): 60 min

Compound: N.N.[Cl][Pt][Cl] [cisplatin]
- tumor growth (volume, size, weight) (UMSCC-10b cells): significantly reduced
- increases in TRPV1, NOX3 and INOS expression (rat cochlea [1]): 2-3 fold
- loss or damage of outer hair cells compared to vehicle controls (outer hair cells (OHCs); SEM): ten-fold
- outer hair cell death (outer hair cells (OHCs); whole mount, myosin VIIa): 43±4%
- Tyr p-STAT3 (UB/OC-1 cells [2]; 2.5 μM, at 120 minutes): sustained inhibition
- JAK2 phosphorylation (UB/OC-1 cells [2]; 2.5 μM, time course): persistent and significant reductions
- Ser^727 p-STAT1 (UB/OC-1 cells [2]; 2.5 μM, up to 120 min): persistent increase
- p-STAT1 (UB/OC-1 cells [2]; [5]): 120±2%
- p-STAT3 (UB/OC-1 cells [2]; [5]): 106.5±2.5%
- CB2 labelling in the OHCs, SGs and SVA (rat cochlea [3]; single agent): did not significantly change
- TRPV1, NOX3 and iNOS labelling in the OHCs, SG and SVA (rat cochlea [3]; single agent vs control): significantly increased

- H2O2-induced calcium release (TRPV1; [6]): prolonged sustained calcium release
Compound: TNF-α
- H2O2-induced calcium release (UB/OC-1 cells [4]; [6]): prolonged sustained calcium release
- time of highest ERK activation post treatment (ERK1/2): 30 min

Compound: COc1cccc(-c2cc(=O)c3ccccc3o2)c1N [PD98059]
- cell death/apoptosis by 100 μM H2O2 (UB/OC1 cells): significantly decreased cell death
- H2O2-induced calcium release (UB/OC-1 cells [4]; 10 μM PD98059 pre-treatment): little or no calcium release
- H2O2-induced calcium release (TRPV1; 10 μM PD98059 pre-treatment): little or no calcium release
